In patent US11708562B2, “Differentiation of human embryonic stem cells” (Janssen Biotech, Inc., priority 2006, dated 2023):

Columns and labels:
[1] = system: H9P49 and H1P46 embryonic stem cells; experiment: Definitive endoderm on MATRIGEL: effective dose of activin A with GSK-3B inhibitor or Wnt-3A; assay type: cell-based, human
Source text: FIGS. 31A, 31B, 31C and 31D is for H9P49 cells and FIGS. 31E and 31F is for H1P46 cells.

[2] = system: human embryonic stem cell line H9; experiment: PCR of definitive endoderm and other lineage markers after activin A, cells on mouse embryonic fibroblasts; assay type: cell-based; details: 100 ng/ml activin A
Source text: (§1) The level of expression of definitive endoderm markers was examined by PCR (FIGS. 1A and 1B), FACS (results summarized in Table I), and immunohistochemistry (FIGS. 2A, 2B and 2C).
Cells were harvested at the time points indicated in FIGS. 3A, 3B, 3C and 3D and assayed by PCR for the expression of genes shown (FIGS. 3A, 3B, 3C, 3D, 4A, 4B, 5A and 5B).
RNA samples were purified by binding to a silica-gel membrane (Rneasy Mini Kit, Qiagen, CA) in the presence of an ethanol-containing, high-salt buffer followed by washing to remove contaminants. The RNA was further purified using a TURBO DNA-free kit (Ambion, INC), and high-quality RNA was then eluted in water. Yield and purity were assessed by A260 and A280 readings on a spectrophotometer. cDNA copies were made from purified RNA using an ABI (ABI, CA) high capacity cDNA archive kit.
Final data were expressed relative to a calibrator sample.

[3] = system: human embryonic stem cell line H9; experiment: Formation of pancreatic endocrine cells expressing Nkx2.2 (PCR); assay type: cell-based; details: activin A for the first three days of culture
Method: Cells were continuously cultured for another 3 to 5 days in basal medium with retinoic acid at 1 μM, alone or with bFGF. RNA samples were harvested from cells at various time points along this process to help evaluate the directed differentiation of the cells. Furthermore, culture medium and factors were regularly removed and replenished throughout the differentiation protocol.

[4] = system: human embryonic stem cell line H1; experiment: FACS protein expression following 5-day activin A treatment (Table IIC); assay type: cell-based; details: 5-day AA treatment
Method: as §1
Adhered cells were removed from culture plates by five-minute incubation with TrypLE™ Express solution (Invitrogen, CA). Released cells were resuspended in human embryonic stem cell culture medium and recovered by centrifugation, followed by washing and resuspending the cells in a staining buffer consisting of 2% BSA, 0.05% sodium azide in PBS (Sigma, MO). As appropriate, the cells were Fc-receptor blocked for 15 minutes using a 0.1% γ-globulin (Sigma) solution. […] Controls included appropriate isotype matched antibodies, unstained cells, and cells stained only with secondary conjugated antibody. All incubations with antibodies were performed for 30 mins at 4° C. after which the cells were washed with the staining buffer. Samples that were stained with unconjugated primary antibodies were incubated for an additional 30 mins at 4° C. with secondary conjugated PE or -APC labeled antibodies. See Table I for a list of secondary antibodies used. Washed cells were pelleted and resuspended in the staining buffer, and the cell surface molecules were identified using a FACS Array (BD Biosciences) instrument, collecting at least 10,000 events.

Activin A: a member of the TGFβ superfamily; growth factor (R&D Systems) used to differentiate human embryonic stem cells
lineage formed at lower doses of activin A [1]: formation of extraembryonic endoderm | anterior endoderm markers Cerberus, Otx-1 and Hex genes [2]: significant up regulation | expression of extraembryonic endoderm markers Sox7 and AFP ([2]; up to seven days): time-dependent decrease | Pdx1 expression compared to samples containing no activin A [3]: maintained Pdx1 expression | CXCR4+ cells (FACS) [4]: 92.78% | CXCR4+/C-kit+ cells (FACS) [4]: 92.90% | CXCR4+/CD9+ cells (FACS) [4]: 7.03% | CXCR4+/CD99+ cells (FACS) [4]: 88.78% | CXCR4+/EPCAM cells (FACS) [4]: 87.99%
